Laboratory results published in the supplement of paper PMC11061612.

Legend:
AZD1775 = compound: C=CCn1c(=O)c2cnc(Nc3ccc(N4CCN(C)CC4)cc3)nc2n1-c1cccc(C(C)(C)O)n1 [AZD1775]; conditions: max 3 µM
In short: (§1)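 Cancer cell lines in 1536-well plates (7.5 μl DMEM/F12 or RPMI, 10% FBS) were held 24 hours at 37°C and 5% CO2 and then dosed for 72 hours at a final DMSO of typically 0.2%. Viability was taken from CellTiter-Glo 2.0 luminescence, scaled between blank-well and DMSO-well means. Curves were fitted as two-parameter logistic models with a non-linear mixed effects model, from which the single-agent IC50 was taken.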

Crizotinib = compound: C[C@@H](Oc1cc(-c2cnn(C3CCNCC3)c2)cnc1N)c1c(Cl)ccc(F)c1Cl [Crizotinib]; conditions: max 10 µM
In short: as §1

Gefitinib = compound: COc1cc2ncnc(Nc3ccc(F)c(Cl)c3)c2cc1OCCCN1CCOCC1 [Gefitinib]; conditions: max 10 µM
In short: as §1

Prexasertib = compound: COc1cccc(OCCCN)c1-c1cc(Nc2cnc(C#N)cn2)n[nH]1 [Prexasertib]; conditions: max 1 µM
In short: as §1

AZD2811 = compound: CCN(CCO)CCCOc1ccc2c(Nc3cc(CC(=O)Nc4cccc(F)c4)[nH]n3)ncnc2c1 [AZD2811]; conditions: max 1 µM
In short: as §1

Lapatinib = compound: CS(=O)(=O)CCNCc1ccc(-c2ccc3ncnc(Nc4ccc(OCc5cccc(F)c5)c(Cl)c4)c3c2)o1 [Lapatinib]; conditions: max 10 µM
In short: as §1

Dasatinib = compound: CC1=C(C(=CC=C1)Cl)NC(=O)C2=CN=C(S2)NC3=CC(=NC(=N3)C)N4CCN(CC4)CCO [Dasatinib]; conditions: max 2 µM
In short: as §1

Palbociclib = compound: CC(=O)c1c(C)c2cnc(Nc3ccc(N4CCNCC4)cn3)nc2n(C2CCCC2)c1=O [Palbociclib]; conditions: max 10 µM
In short: as §1

AZD1390 = compound: CC(C)n1c(=O)n(C)c2cnc3cc(F)c(-c4ccc(OCCCN5CCCCC5)nc4)cc3c21 [AZD1390]; conditions: max 0.3 µM
In short: as §1

Capivasertib = compound: C1CN(CCC1(C(=O)N[C@@H](CCO)C2=CC=C(C=C2)Cl)N)C3=NC=NC4=C3C=CN4 [Capivasertib]; conditions: max 10 µM
In short: as §1

AZD7648 = compound: Cc1cc2ncnn2cc1Nc1ncc2c(n1)n(C1CCOCC1)c(=O)n2C [AZD7648]; conditions: max 10 µM
In short: as §1

Selumetinib = compound: Cn1cnc2c(F)c(Nc3ccc(Br)cc3Cl)c(C(=O)NOCCO)cc21 [Selumetinib]; conditions: max 10 µM
In short: as §1

Alisertib = compound: COc1cc(Nc2ncc3c(n2)-c2ccc(Cl)cc2C(c2c(F)cccc2OC)=NC3)ccc1C(=O)O [Alisertib]; conditions: max 10 µM
In short: as §1

AZD5153 = compound: COc1nnc2ccc(N3CCC(c4ccc(OCCN5CCN(C)C(=O)[C@H]5C)cc4)CC3)nn12 [AZD5153]; conditions: max 1 µM
In short: as §1

Trametinib = compound: CC(=O)Nc1cccc(-n2c(=O)n(C3CC3)c(=O)c3c(Nc4ccc(I)cc4F)n(C)c(=O)c(C)c32)c1 [Trametinib]; conditions: max 1 µM
In short: as §1

Taselisib = compound: Cc1nc(-c2cn3c(n2)-c2ccc(-c4cnn(C(C)(C)C(N)=O)c4)cc2OCC3)n(C(C)C)n1 [Taselisib]; conditions: max 10 µM
In short: as §1

AZD0156 = compound: CN(C)CCCOc1ccc(-c2ccc3ncc4c(c3c2)n(C2CCOCC2)c(=O)n4C)cn1 [AZD0156]; conditions: max 3 µM
In short: as §1

AZD6738 = compound: C[C@@H]1COCCN1C2=NC(=NC(=C2)C3(CC3)[S@](=N)(=O)C)C4=C5C=CNC5=NC=C4 [AZD6738]; conditions: max 10 µM
In short: as §1

SN-38 = compound: CCc1c2c(nc3ccc(O)cc13)-c1cc3c(c(=O)n1C2)COC(=O)[C@]3(O)CC [SN-38]; conditions: max 0.3 µM
In short: as §1

Venetoclax = compound: CC1(C)CCC(CN2CCN(c3ccc(C(=O)NS(=O)(=O)c4ccc(NCC5CCOCC5)c([N+](=O)[O-])c4)c(Oc4cnc5[nH]ccc5c4)c3)CC2)=C(c2ccc(Cl)cc2)C1 [Venetoclax]; conditions: max 1 µM
In short: as §1

Doxorubicin = compound: COc1cccc2c1C(=O)c1c(O)c3c(c(O)c1C2=O)C[C@@](O)(C(=O)CO)C[C@@H]3O[C@H]1C[C@H](N)[C@H](O)[C@H](C)O1 [Doxorubicin]; conditions: max 1 µM
In short: as §1

AZD4320 = compound: CN(CC[C@H](CSC1=CC=CC=C1)NC2=C(C=C(C=C2)S(=O)(=O)NC(=O)C3=CC=C(C=C3)N4CCC(CC4)[C@H](C5=CC=CC=C5C6=CC=C(C=C6)Cl)O)S(=O)(=O)C(F)(F)F)CCO [AZD4320]; conditions: max 1 µM
In short: as §1

Savolitinib = compound: C[C@@H](c1ccc2nccn2c1)n1nnc2ncc(-c3cnn(C)c3)nc21 [Savolitinib]; conditions: max 1 µM
In short: as §1

AZD8186 = compound: C[C@@H](Nc1cc(F)cc(F)c1)c1cc(C(=O)N(C)C)cc2c(=O)cc(N3CCOCC3)oc12 [AZD8186]; conditions: max 3 µM
In short: as §1

Olaparib = compound: O=C(c1cc(Cc2n[nH]c(=O)c3ccccc23)ccc1F)N1CCN(C(=O)C2CC2)CC1 [Olaparib]
In short: as §1

AZD5991 = compound: Cc1c2c(nn1C)CSCc1cc(n(C)n1)CSc1cc(c3ccccc3c1)OCCCc1c(C(=O)O)n(C)c3c-2c(Cl)ccc13 [AZD5991]; conditions: max 1 µM
In short: as §1

SG3199 = compound: CC1=CN2[C@@H](C1)C=NC3=CC(=C(C=C3C2=O)OC)OCCCCCOC4=C(C=C5C(=C4)N=C[C@@H]6CC(=CN6C5=O)C)OC [SG3199]; conditions: max 0.001 µM
In short: as §1

Row | Cell Line | IC50, cell viability 72 h (AZD1775) | IC50, cell viability 72 h (Crizotinib) | IC50, cell viability 72 h (Gefitinib) | IC50, cell viability 72 h (Prexasertib) | IC50, cell viability 72 h (AZD2811) | IC50, cell viability 72 h (Lapatinib) | IC50, cell viability 72 h (Dasatinib) | IC50, cell viability 72 h (Palbociclib) | IC50, cell viability 72 h (AZD1390) | IC50, cell viability 72 h (Capivasertib) | IC50, cell viability 72 h (AZD7648) | IC50, cell viability 72 h (Selumetinib) | IC50, cell viability 72 h (Alisertib) | IC50, cell viability 72 h (AZD5153) | IC50, cell viability 72 h (Trametinib) | IC50, cell viability 72 h (Taselisib) | IC50, cell viability 72 h (AZD0156) | IC50, cell viability 72 h (AZD6738) | IC50, cell viability 72 h (SN-38) | IC50, cell viability 72 h (Venetoclax) | IC50, cell viability 72 h (Doxorubicin) | IC50, cell viability 72 h (AZD4320) | IC50, cell viability 72 h (Savolitinib) | IC50, cell viability 72 h (AZD8186) | IC50, cell viability 72 h (Olaparib; max 10 µM) | IC50, cell viability 72 h (AZD5991) | IC50, cell viability 72 h (SG3199) | IC50, cell viability 72 h (Olaparib; max 3 µM)
1 | GOTO (Neuroblastoma) | 650 nM | 1640 nM | > 10000 nM | 11.8 nM | 332 nM | 6070 nM | > 2000 nM | 7010 nM | > 300 nM | > 10000 nM | > 10000 nM | > 10000 nM | 272 nM | 91.7 nM | > 1000 nM | 4550 nM | > 3000 nM | 592 nM | 3.91 nM | > 1000 nM | 193 nM | > 1000 nM | > 1000 nM | > 3000 nM | > 10000 nM | 398 nM | > 1 nM | 
2 | HC-1 (Other Blood Carcinomas) | 187 nM | > 10000 nM | > 10000 nM | 6.96 nM | 884 nM | > 10000 nM | 1680 nM | 9650 nM | > 300 nM | > 10000 nM | > 10000 nM | > 10000 nM | 752 nM | 858 nM | > 1000 nM | 2640 nM | > 3000 nM | 4320 nM | 4.53 nM | > 1000 nM | 151 nM | 793 nM | > 1000 nM | > 3000 nM | > 10000 nM | > 1000 nM | > 1 nM | 
3 | HuP-T3 (Pancreatic Carcinoma) | 1610 nM | > 10000 nM | > 10000 nM | 166 nM | > 1000 nM | > 10000 nM | 791 nM | > 10000 nM | > 300 nM | > 10000 nM | > 10000 nM | > 10000 nM | > 10000 nM | > 1000 nM | 567 nM | > 10000 nM | > 3000 nM | > 10000 nM | 235 nM | > 1000 nM | > 1000 nM | > 1000 nM | > 1000 nM | > 3000 nM | > 10000 nM | > 1000 nM | > 1 nM | 
4 | IMR-5 (Neuroblastoma) | 498 nM | 2210 nM | > 10000 nM | 13.6 nM | 18.2 nM | > 10000 nM | > 2000 nM | 6630 nM | > 300 nM | > 10000 nM | > 10000 nM | > 10000 nM | 18.3 nM | 69.6 nM | > 1000 nM | > 10000 nM | > 3000 nM | 2190 nM | 1.9 nM | > 1000 nM | 64.9 nM | 546 nM | > 1000 nM | > 3000 nM | > 10000 nM | 107 nM | > 1 nM | 
5 | KLE (Endometrial Carcinoma) | 1800 nM | > 10000 nM | > 10000 nM | > 1000 nM | > 1000 nM | > 10000 nM | 186 nM | > 10000 nM | > 300 nM | > 10000 nM | > 10000 nM | > 10000 nM | 9070 nM | 315 nM | > 1000 nM | 2430 nM | > 3000 nM | > 10000 nM | > 300 nM | > 1000 nM | > 1000 nM | > 1000 nM | > 1000 nM | > 3000 nM | > 10000 nM | > 1000 nM | > 1 nM | 
6 | KP-2 (Pancreatic Carcinoma) | > 3000 nM | > 10000 nM | > 10000 nM | 867 nM | > 1000 nM | > 10000 nM | > 2000 nM | > 10000 nM | > 300 nM | > 10000 nM | > 10000 nM | 8020 nM | > 10000 nM | > 1000 nM | 778 nM | > 10000 nM | > 3000 nM | > 10000 nM | > 300 nM | > 1000 nM | > 1000 nM | 238 nM | > 1000 nM | > 3000 nM | > 10000 nM | > 1000 nM | > 1 nM | 
7 | NH-12 (Neuroblastoma) |  | 3020 nM | > 10000 nM | 17.3 nM | 509 nM | > 10000 nM | > 2000 nM | > 10000 nM | > 300 nM | > 10000 nM | > 10000 nM | > 10000 nM | 68.8 nM | 625 nM | 105 nM | 1250 nM | > 3000 nM | 2370 nM | 4.09 nM | 576 nM | 157 nM | 79.3 nM | > 1000 nM | > 3000 nM | > 10000 nM | > 1000 nM | > 1 nM | 
8 | U-87-MG (Glioblastoma) | > 3000 nM | > 10000 nM | > 10000 nM | > 1000 nM | > 1000 nM | > 10000 nM | > 2000 nM | > 10000 nM | > 300 nM | > 10000 nM | > 10000 nM | > 10000 nM | > 10000 nM | > 1000 nM | > 1000 nM | 2450 nM | > 3000 nM | > 10000 nM | 40.5 nM | > 1000 nM |  | > 1000 nM | > 1000 nM | 2450 nM |  | > 1000 nM |  | > 3000 nM
